In experiment [1] the test system is NBT II cells. Briefly: In vitro wound assay (migration of NBT II cells). The experiment is classed as cell-based, rat. The method, then: FIGS. 1A and 1B show the migration of epithelial NBT II cells under varying conditions. […] Twenty-four hours after plating, the confluent cell monolayer was scratched as described in the Examples. EGF (100 ng/mL) or Ultroser G (2%) were added. Wound closure was documented by photography. The calibration bar indicates 80 pn. Migration Assays-For in vitro wound assays, NBT II cells were plated at a density of 7×10^4 cells/cm^2. After 24 hours the confluent monolayer was scratched with a pipette tip to create a cell free area, growth factors were added, and wound closure was documented by photography. For scatter assays, cells were plated at a cell density of 1×10^4 cells/cm^2. Growth factors were added after 24 hours, and the morphology of cells and the dispersion of small colonies were documented by photography. Quantification of migration was performed by counting single cells with fibroblastoid migration morphology compared to cells in groups with epithelial morphology in different, randomly chosen microscopic fields. 1000 cells per dish were counted. All migration assays were performed in triplicate. Tyrosine kinases (TK), mitogen-activated protein kinase (MAPK) or phosphatidylinositol-3-kinase (Pl3K), were inhibited by Genistein (250 μM; Biomol), added one hour before addition of the growth factors. As a control, the solvent DMSO was used. DNA synthesis was inhibited by the specific inhibitor of DNA polymerase, α Aphidicolin (1.5 μM; Serva) 1 hour before adding the growth factors. Migration of epithelial cells in tissue culture represents in many aspects a model system of the epithelial-mesenchymal transition ([…], et al. (1994) Int. Rev. Cytol. 155, 49-9). The rat bladder carcinoma cell line NBT II (Toyoshima, et al. (1971) J. Nat. Cancer Inst. 47, 979-985) was used, since certain growth factors and components of the extracellular matrix (ECM) induce migration of these cells (Valles, et al. (1990) Proc. Natl. Acad. Sci. USA 87, 1124-1128; Tchao, R. (1982) Cell Motil. 4, 333-341; Tucker, et al. (1990) Cancer Res. 50, 129-137).

For experiment [2], the system named is β-catenin and plakoglobin. The experiment can be described thus: Tyrosine phosphorylation of β-catenin and plakoglobin in migrating NBT II cells (immunoprecipitation, Western blot). The experiment is classed as cell-based, rat. To be noted: pretreatment with 1 mM Na-orthovanadate. Here is the method:
NBT II cells were plated at a density of 1×10^4 cells/cm^2. Twenty-four hours later growth factors were added to induce migration (EGF: 100 ng/mL; aFGF: 30 ng/mL including 50 μg/mL heparin; Ultroser G: 2%). Ninety minutes before lysis, Na-orthovanadate (1 mM) was added (right) or not (left). As a positive control, cells were treated for 10 minutes with pervanadate. After lysis the cadherin/catenin complex was immunoprecipitated and precipitates were separated by SDS-PAGE. Tyrosine phosphorylation levels were analyzed by Western blotting with an anti-phosphotyrosine antibody (top). The membranes were reprobed with specific antibodies to E-cadherin (middle) or the catenins (bottom) to assure equal amounts of precipitated proteins. Highly tyrosine phosphorylated β-catenin (as hereafter pervanadate treatment) was not efficiently immunodecorated in the reblot. Arrows indicate the proteins of interest. Molecular mass standards in kilodaltons are shown on the left.
Transient Expression, Cell Lysis, and Immunoprecipitation—Transient transfection of human 293 embryonic kidney cells was performed as described (Chen, et al. (1987) Mol. Cell. Biol. 7, 2745-2752, hereby incorporated herein by reference in its entirety, including any drawings, figures, or tables). For biochemical analysis, NBT II cells were plated at a density of 1×10^4 cells/cm^2 at the day before lysis. […]
On the technique in general: A western blot detects proteins with antibodies after separation by electrophoresis.

Experiment [3] has as its system free, uncomplexed β-catenin. The experiment can be described thus: Affinity precipitation of free β-catenin with GST-E-cadherin cytoplasmic fusion protein. The settings on record: EGF 100 ng/mL. The experiment is classed as cell-based, rat. Here is the method:
NBT II cells were plated at a density of 1×10^4 cells/cm^2. Twenty-four hours later EGF (100 ng/mL) was added for the indicated time intervals. 30 minutes before lysis Na-orthovanadate (1 mM) was added. Subsequently affinity precipitations were performed with 5 μg of a GST/E-cadherin cytoplasmic protein or GST in a three-fold molar excess. Proteins were separated by SDS-PAGE, and the levels of free, uncomplexed β-catenin were analyzed by Western blotting with an anti-β-catenin-antibody (top). […] Note that in comparison to FIG. 2, cells were pretreated for only 30 minutes with Na-orthovanadate. Arrows indicate the proteins of interest. Molecular mass standards in kilodaltons are shown on the left.
NBT II cells infected with the empty vector pLXSN (left) or human PTP LAR (right) were plated at 1×10^4 cells/cm^2 and stimulated after 24 h with EGF (100 ng/mL) for the indicated time intervals. Na-orthovanadate pretreatment was omitted to avoid irreversible inhibition of protein tyrosine phosphatase activity. Cells were lysed and in vitro associations were performed with 5 μg of the GST-E-cadherin cytoplasmic protein or GST in a three-fold molar excess. Proteins were separated by SDS-PAGE, and the levels of free, uncomplexed β-catenin were analyzed by Western blotting with an anti-β-catenin antibody (top). […] Arrows indicate the proteins of interest. […]

For experiment [4], the system named is NBT II cells. The experiment can be described thus: Tumor formation in nude mice. The experiment is classed as in vivo, Swiss nude mice. To be noted: NBT II hPTP LAR cells injected subcutaneously into flank, 2×10^6/50 μL. Here is the method: NBT II cells, infected with the empty vector pLXSN (filled triangle) or human PTP LAR (filled square), were injected (2×10^6/50 μL) subcutaneously into the flank region of Swiss nude mice. Tumor formation was monitored.
Tumor formation in Nude Mice—NBT II cells were resuspended at a cell density of 2×10^6/50 μL in MEM and injected subcutaneously into the flank region of Swiss nude mice (IGR Villejuif, Paris, France). Tumor formation was monitored by measuring the width (W) and length (L) of the tumors with W<L. The tumor volume was calculated according to the formula (W^2×L×π/6). Assays were performed at least in triplicate.

Experiment [5] has as its system NBT II cells. The experiment can be described thus: Scatter assay of NBT II cells after EGF treatment. The experiment is classed as cell-based, rat. The settings on record: ectopic expression, about twice the PTP LAR expression of parental cells; EGF 100 ng/mL. Here is the method: FIGS. 7A and 7B show a scatter assay of NBT II pLXSN and NBT II hPTP LAR cells. In FIG. 7A, NBT II cells infected with the empty vector pLXSN (left) or human PTP LAR (right) were plated at 1×10^4 cells/cm^2 and stimulated 24 h later with EGF (100 ng/mL) as indicated. After 7 h, the migration morphology was documented by photography.
To this end, 1000 cells per dish from randomly chosen microscopic fields were counted; assays were performed in triplicate. A cell was judged as a migrating cell when it had changed from a cobblestone-like, epithelial morphology to a migrating, fibroblastoid phenotype.
Migration Assays—For in vitro wound assays, NBT II cells were plated at a density of 7×10^4 cells/cm^2. After 24 hours the confluent monolayer was scratched with a pipette tip to create a cell free area, growth factors were added, and wound closure was documented by photography. For scatter assays, cells were plated at a cell density of 1×10^4 cells/cm^2. Growth factors were added after 24 hours, and the morphology of cells and the dispersion of small colonies were documented by photography. Quantification of migration was performed by counting single cells with fibroblastoid migration morphology compared to cells in groups with epithelial morphology in different, randomly chosen microscopic fields. 1000 cells per dish were counted. All migration assays were performed in triplicate. […]

Experiment [6] concerns NBT II cells. Briefly: DNA-synthesis and proliferation rate of NBT II-hPTP LAR cell lines. The experiment is classed as cell-based, rat. The settings on record: ectopic expression in NBT II cells.
The mark [7] stands for this setting: inhibition of PI3K or MAPK, concentration not given.

Consider `C[C@@]1(CO)[C@H](O)CC[C@@]2(C)[C@H]1CC[C@H]1C[C@@H]3C[C@@]12CC[C@]3(O)CO` [Aphidicolin], for which the “effect on cell migration (wound closure)” value in the experiment on NBT II cells [1] (Aphidicolin 1.5 μM, added 1 hour before the growth factors, inhibition of DNA-synthesis) is “did not interfere with migration”.
Regarding `O=c1c(-c2ccc(O)cc2)coc2cc(O)cc(O)c12` [Genistein], in the experiment with NBT II cells [1] (Genistein 250 μM, added one hour before the growth factors, inhibition of tyrosine kinases), the “effect on cell migration (wound closure)” value was “completely abolished cell migration”.
`[Na+].[Na+].[Na+].[O]=[V]([O-])([O-])[O-]` [Na-orthovanadate]: the “tyrosine phosphorylation of β-catenin and plakoglobin” value in experiment [2] was “increased tyrosine phosphorylation”.
Turning to `COc1cccc(-c2cc(=O)c3ccccc3o2)c1N` [PD98059], the “effect on cell migration (wound closure)” value in the experiment on NBT II cells [1] (setting [7]) is “completely abolished cell migration”.
Turning to `O=c1cc(N2CCOCC2)oc2c(-c3ccccc3)cccc12` [ly295002], the “effect on cell migration (wound closure)” value in the experiment on NBT II cells [1] (setting [7]) is “completely abolished cell migration”.
“EGF: growth factor used to induce epithelial cell migration [reference compound]”: in experiment [3] (NBT II cells), the “free pool of β-catenin” value was “increase of the free pool of β-catenin”.
Turning to “hPTP LAR: full-length human PTP LAR ectopically expressed in NBT II cells by retroviral gene transfer (pLXSN)”, the “tyrosine phosphorylation and increase of the free pool of β-catenin” value in experiment [3] (NBT II-hPTP LAR-expressing cells, no Na-orthovanadate) is on record as “neither tyrosine phosphorylation, nor an increase in the free pool of β-catenin were detectable”. Further, the “tumor growth in comparison to NBT II pLXSN cells” value with NBT II cells [4] is reported as “significantly reduced tumor growth”. Besides, in the experiment on NBT II cells [5], the “EMT and motility relative to vector-control infected cell lines (NBT II pLXSN)” value is listed as “about 40%”. Besides, in the experiment on NBT II cells [6], the “DNA-synthesis and proliferation rate” value was “not affected”.

The record behind these values is patent US20090074722A1, “Products and methods for treating PTP lar diseases” (MAX-PLANCK-GESELLSCHAFT ZUR, priority 1999, published 2009).
